How the values were obtained:
[1] = tested on: treatment-naive, locally advanced or metastatic (stage IIIB-IVB) NSCLC; assay: B-F1RST phase II trial (NCT02848651) interim analysis: efficacy of first-line atezolizumab by bTMB subgroup; type: in vivo, human
Excerpt: (§1) The B-F1 RST (Clinical Trial ID No.: NCT02848651) patient population being evaluated for bTMB score consists of approximately 150 patients at 20 to 25 study sites (N=153). Patients are eligible for enrollment in the B-F1 RST study if they have treatment-naïve, locally advanced or metastatic (e.g., stage IIIB-IVB) NSCLC; measurable disease, as defined by RECIST v1.1; and an ECOG performance status of 0 or 1. Exclusion criteria include sensitizing EGFR mutations or ALK rearrangements; active brain metastases requiring treatment; leptomeningeal disease; other malignancies within 5 years of enrollment; HBV, HCV, or HIV infection; or history of autoimmune disorder. Participants are divided into cohorts based on bTMB score and receive atezolizumab at a dose of 1200 mg intravenously every three weeks. All patients undergo tumor assessment at baseline and every 6 weeks for the first 12 months following cycle 1, day 1, and then every 9 weeks therafter. Treatment with atezolizumab can be continued as long as participants were experiencing clinical benefit, i.e., in the absence of unacceptable toxicity or symptomatic deterioration attributed to disease progression. Tumor assessments continue until disease progression per RECIST v1.1 or loss of clinical benefit (investigator assessed), consent withdrawal, study discontinuation, study completion, or death. Mandatory blood samples are taken at baseline, during therapy, and at progression to evaluate changes in exploratory biomarkers. The interim analysis was prespecified to occur at 6 months after 50% of the patients have been enrolled, with a prespecified bTMB score of ≥16. The co-primary endpoints are the clinical efficacy of atezolizumab (as evaluated by investigator-assessed ORR per RECIST v1.1) and the relationship between bTMB and PFS benefit (as evaluated by investigator-assessed PFS per RECIST v1.1). The secondary objectives are safety and assessment of efficacy by investigator-assessed duration of response (DOR) and OS.
(§2) Of 78 treated patients in the interim analysis population (IAP) from the B-F1 RST study, 58 had adequate blood samples with sufficient detection of circulating tumor DNA (MSAF≥1%) and comprised the biomarker-evaluable population (BEP). One patient of the IAP was never treated and therefore not safety- or efficacy-evaluable. A bTMB score of 16 (prevalence, 19% [11/58]) was prespecified to evaluate clinical efficacy in the BEP (bTMB high, ≥16; bTMB low, <16). Statistical tests were 2-sided at a 0.1 level and 90% confidence interval.

[2] = tested on: treatment-naive, locally advanced or metastatic (stage IIIB-IVB) NSCLC; assay: B-F1RST phase II trial (NCT02848651) interim analysis: safety (adverse events) of atezolizumab; type: in vivo, human
Excerpt: as §1, §2

[3] = bTMB cut-off score 12, BEP n = 58
[4] = bTMB cut-off score 14, BEP n = 58
[5] = bTMB cut-off score 16, BEP n = 58
[6] = bTMB cut-off score 20, BEP n = 58

Substance: atezolizumab
- disease control rate ([1]; B-F1RST interim analysis, BEP (n=58)): 25.9%
- ORR ([1]; B-F1RST interim analysis, BEP (n=58), RECIST v1.1): 12.1%
- PFS HR (90% CI) ([1]; B-F1RST interim analysis, bTMB high (≥16) vs low (<16)): 0.51
- median PFS ([1]; B-F1RST interim analysis, bTMB high (≥16), minimum follow-up of 6 months): 9.5 months
- ORR ([1]; B-F1RST interim analysis, bTMB high (≥16), n=11): 36.4%
- ORR odds ratio (90% CI) ([1]; B-F1RST interim analysis, bTMB high versus low groups): 8.38
- median PFS ([1]; B-F1RST interim analysis, bTMB low (<16), minimum follow-up of 6 months): 2.8 months
- ORR ([1]; B-F1RST interim analysis, bTMB low (<16), n=47): 6.4%
- ORR per RECIST v.1.1 ([1]; BEP (n = 58)): 12.1%
- PD per RECIST v.1.1 ([1]; BEP (n = 58)): 37.9%
- PR per RECIST v.1.1 ([1]; BEP (n = 58)): 12.1%
- ORR per RECIST v.1.1 ([1]; IAP (n = 78)): 15.4%
- PD per RECIST v.1.1 ([1]; IAP (n = 78)): 37.2%
- PR per RECIST v.1.1 ([1]; IAP (n = 78)): 15.4%
- PFS Median, bTMB High [1, 3]: 3.0 (22) months
- PFS Median, bTMB Low [1, 3]: 3.2 (36) months
- PFS Median, bTMB High [1, 4]: 3.4 (14) months
- PFS Median, bTMB Low [1, 4]: 3.2 (44) months
- PFS Median, bTMB High [1, 5]: 9.5 (11) months
- PFS Median, bTMB Low [1, 5]: 2.8 (47) months
- PFS Median, bTMB High [1, 6]: 9.5 (8) months
- PFS Median, bTMB Low [1, 6]: 2.7 (50) months
- ORR per RECIST v.1.1 ([1]; bTMB high (n = 11)): 36.4%
- PD per RECIST v.1.1 ([1]; bTMB high (n = 11)): 36.4%
- PR per RECIST v.1.1 ([1]; bTMB high (n = 11)): 36.4%
- PFS HR ([1]; bTMB high (≥16) vs bTMB low (<16), Table 20): 0.51
- median PFS ([1]; bTMB high (≥16), n = 11, BEP, first-line atezolizumab, minimum follow-up 6 months): 9.5 mo
- PFS HR ([1]; bTMB high vs low at cut-off score 12, BEP n = 58): 0.95
- PFS HR ([1]; bTMB high vs low at cut-off score 14, BEP n = 58): 0.73
- PFS HR ([1]; bTMB high vs low at cut-off score 16, BEP n = 58, Table 21): 0.49
- PFS HR ([1]; bTMB high vs low at cut-off score 20, BEP n = 58): 0.23
- median PFS ([1]; bTMB low (<16), n = 47, BEP, first-line atezolizumab, minimum follow-up 6 months): 2.8 mo
- ORR per RECIST v.1.1 ([1]; bTMB low (n = 47)): 6.4%
- PD per RECIST v.1.1 ([1]; bTMB low (n = 47)): 38.3%
- PR per RECIST v.1.1 ([1]; bTMB low (n = 47)): 6.4%
- Treatment-related Grade 5 AEs ([2]; Patients in IAP (n = 78)): ^bNo treatment-related Grade 5 AEs were reported.
- Grade 5 AEs, any cause ([2]; Patients in IAP (n = 78), reported as death, cardiac arrest, pulmonary embolism (n = 1 each)): 3 (3.8%) n (%)
- AE of special interest: Adrenal insufficiency ([2]; in vivo): 1 (1.3%) n (%)
- AEs leading to discontinuation, patients ([2]; in vivo): 15.4%
- AEs leading to treatment discontinuation ([2]; in vivo): 12 (15.4%) n (%)
- AEs, any cause ([2]; in vivo): 78 (100.0%) n (%)
- Grade 3-4 AEs, any cause ([2]; in vivo): 40 (51.3%) n (%)
- SAEs, any cause ([2]; in vivo): 35 (44.9%) n (%)
- Treatment-related AEs ([2]; in vivo): 59 (75.6%) n (%)
- Treatment-related Grade 3-4 AEs ([2]; in vivo): 15 (19.2%) n (%)
- Treatment-related SAEs ([2]; in vivo): 12 (15.4%) n (%)
- Treatment-related serious AEs, patients ([2]; in vivo): 14.1%
- tolerability ([2]; in vivo): well tolerated
- treatment-related grade 3/4 AEs, patients ([2]; in vivo): 16.7%
